Reference: patent publication US20060287313A1, “Isoquinoline compounds and methods of use thereof” (Inotek Pharmaceuticals Corporation, priority 2005, published 2006)

Assays:
PARS = molecular target: T1, PARS (Mus musculus, UniProt P11103); test: Cell protection assay: PARS activity in peroxynitrite-treated raw murine macrophages; format: cell-based; details: peroxynitrite 750 μM, 3H-NAD incorporation, calculated from a dose-response curve
T1 construct: endogenous in cells; host or cells: RAW murine macrophages
T1 sequence (P11103 whole entry): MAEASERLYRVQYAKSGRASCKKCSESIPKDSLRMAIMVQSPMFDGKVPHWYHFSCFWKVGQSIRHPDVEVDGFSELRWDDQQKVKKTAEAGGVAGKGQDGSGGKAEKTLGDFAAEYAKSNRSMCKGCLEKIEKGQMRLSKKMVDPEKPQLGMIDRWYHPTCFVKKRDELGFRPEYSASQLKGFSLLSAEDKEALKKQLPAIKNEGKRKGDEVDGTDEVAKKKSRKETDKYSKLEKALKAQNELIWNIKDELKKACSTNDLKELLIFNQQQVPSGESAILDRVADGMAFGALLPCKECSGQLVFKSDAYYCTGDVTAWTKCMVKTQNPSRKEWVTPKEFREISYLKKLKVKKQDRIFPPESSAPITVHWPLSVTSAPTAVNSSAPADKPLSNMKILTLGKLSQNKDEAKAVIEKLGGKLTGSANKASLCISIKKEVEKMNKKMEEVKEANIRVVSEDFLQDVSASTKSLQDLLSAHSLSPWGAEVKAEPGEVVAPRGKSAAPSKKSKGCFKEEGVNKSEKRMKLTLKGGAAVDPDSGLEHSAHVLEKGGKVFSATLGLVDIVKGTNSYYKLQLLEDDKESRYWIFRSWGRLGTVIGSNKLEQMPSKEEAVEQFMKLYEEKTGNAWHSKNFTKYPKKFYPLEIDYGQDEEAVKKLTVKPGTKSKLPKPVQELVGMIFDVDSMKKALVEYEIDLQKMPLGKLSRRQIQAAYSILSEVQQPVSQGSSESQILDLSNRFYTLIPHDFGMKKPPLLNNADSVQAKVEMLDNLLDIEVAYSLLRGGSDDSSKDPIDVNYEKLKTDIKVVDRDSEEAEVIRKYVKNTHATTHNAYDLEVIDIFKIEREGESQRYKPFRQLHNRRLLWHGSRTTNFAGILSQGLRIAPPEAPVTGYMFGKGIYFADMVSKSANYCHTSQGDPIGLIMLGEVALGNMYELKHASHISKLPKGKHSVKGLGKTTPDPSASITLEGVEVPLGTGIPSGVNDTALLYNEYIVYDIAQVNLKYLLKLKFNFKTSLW
Procedure: The media was removed and replaced with 0.5 mL HEPES (pH 7.5) containing 0.01% digitonin and ^3H-NAD (0.5 μCi/mL, final concentration of NAD+ in buffer is […]) and the resultant mixture was allowed to stand for 20 minutes. […] The tubes were maintained at 4° C. for four hours, centrifuged at 1800 g for 10 minutes, and the supernatant removed. […] The contents of the tubes were then added to ScintiSafe Plus scintillation liquid (6.5 ml, Fisher Scientific) and radioactivity was measured using a liquid scintillation counter (Wallac, Gaithersburg, Md.).

purified PARS enzyme = molecular target: T2, purified PARS enzyme (Homo sapiens, UniProt P09874); test: Purified PARS enzyme assay (Trevigen PARS inhibition assay kit); format: biochemical; details: Table 1, inhibitory effect on PARS; assay not given
T2 construct: purchased Trevigen, Gaithersburg, Md
T2 sequence (P09874 whole entry): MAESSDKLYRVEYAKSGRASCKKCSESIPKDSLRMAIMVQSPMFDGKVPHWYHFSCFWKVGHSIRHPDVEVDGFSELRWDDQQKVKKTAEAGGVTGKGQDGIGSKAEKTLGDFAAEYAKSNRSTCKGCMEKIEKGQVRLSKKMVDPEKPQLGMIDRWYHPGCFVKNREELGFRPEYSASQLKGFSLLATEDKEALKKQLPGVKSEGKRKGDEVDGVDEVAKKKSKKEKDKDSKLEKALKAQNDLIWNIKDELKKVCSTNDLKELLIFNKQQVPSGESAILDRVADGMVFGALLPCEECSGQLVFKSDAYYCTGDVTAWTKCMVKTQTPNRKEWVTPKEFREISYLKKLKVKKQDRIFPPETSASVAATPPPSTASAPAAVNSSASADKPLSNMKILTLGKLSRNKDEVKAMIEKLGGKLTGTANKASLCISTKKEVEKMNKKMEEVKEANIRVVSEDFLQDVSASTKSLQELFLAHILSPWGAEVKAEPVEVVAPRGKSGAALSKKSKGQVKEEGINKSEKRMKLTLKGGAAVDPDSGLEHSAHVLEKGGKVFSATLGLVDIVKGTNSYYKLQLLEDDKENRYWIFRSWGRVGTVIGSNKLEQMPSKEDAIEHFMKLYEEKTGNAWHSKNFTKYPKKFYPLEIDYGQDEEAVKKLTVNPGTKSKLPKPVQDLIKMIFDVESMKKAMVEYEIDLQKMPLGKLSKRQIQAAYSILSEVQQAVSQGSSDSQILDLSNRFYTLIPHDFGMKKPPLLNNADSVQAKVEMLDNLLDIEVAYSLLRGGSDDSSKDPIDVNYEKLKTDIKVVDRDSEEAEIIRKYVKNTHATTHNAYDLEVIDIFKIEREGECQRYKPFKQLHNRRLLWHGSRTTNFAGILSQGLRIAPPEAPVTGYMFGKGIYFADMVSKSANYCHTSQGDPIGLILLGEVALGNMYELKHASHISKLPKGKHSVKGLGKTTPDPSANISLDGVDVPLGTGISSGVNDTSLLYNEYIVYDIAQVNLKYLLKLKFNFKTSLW
Procedure: The assay is performed in 96 well ELISA plates according to instructions provided with a commercially available PARS inhibition assay kit (for example, from Trevigen, Gaithersburg, Md.).
The assay was performed in 96 well ELISA plates according to instructions provided with a commercially available PARS inhibition assay kit (Trevigen, Gaithersburg, Md.). Briefly, wells were coated with 1 mg/ml histone (50 μl/well) at 4 C overnight. Plates were then washed four times with PBS and then blocked by adding 50 μl Strep-Diluent (supplied with the kit). After incubation (1 h, 25° C.), the plates were washed four times with PBS. […] The reaction was allowed to proceed for 30 min at room temperature. After 4 washes in PBS, incorporated biotin was detected by peroxidase-conjugated streptavidin (1:500 dilution) and TACS Sapphire substrate.

CN(C)CC(=O)Nc1cccc2c1Cc1c-2[nH]c(=O)c2ccccc12 [Compound 3a]
EC50 (PARS): 200 nM

CN(C)CCC(=O)Nc1cccc2c1Cc1c-2[nH]c(=O)c2ccccc12 [Compound 3b]
EC50 (PARS): 280 nM

O=C(CN1CC=C(c2ccccc2)CC1)Nc1ccc2c(c1)Cc1c-2[nH]c(=O)c2ccccc12 [Compound 12a, N-(5-Oxo-5,11-dihydro-6H-indeno[1,2-c]isoquinolin-9-yl)-2-(4-phenyl-3,6-dihydro-2H-pyridin-1-yl)-acetamide]
IC50 (purified PARS enzyme): 80 nM

CCCNC(=O)Nc1ccc2c(c1)Cc1c-2[nH]c(=O)c2ccccc12 [Compound 27]
IC50 (purified PARS enzyme): 100 nM

CN(C)CC(=O)Nc1ccc2c(c1)-c1[nH]c(=O)c3ccccc3c1C2 [Compound 56a, N-[5,6-Dihydro-5-oxo-indeno[1,2-c]isoquinolin-8-yl]-N,N-dimethylacetamide]
IC50 (purified PARS enzyme): 800 nM
